According to PMC9865040, “Design of A3B-Porphyrin Conjugates with Terpyridine as Potential Theranostic Agents: Synthesis, Complexation with Fe(III), Gd(III), and Photodynamic Activity” (Pharmaceutics, 2023):
Values belong to the compound of their own block, whether it stands above or below them.

Legend:
[1] = standard; cited from earlier work
[2] = design: method as in PMID 17020252, PMID 24063545, doi:10.1002/(SICI)1099-1409(199803/04)2:2<145::AID-JPP60>3.0.CO; details: in DMF, standard; cited from earlier work
[3] = system: NKE cells (human kidney epithelium); assay: Comet assay (DNA damage test); assay type: cell-based; details: 1 μg/mL, 24 h, positive control
Experimental: Comet assay. NKE cells (human kidney epithelium) were seeded into 24-well plates at 8 × 10^4 per well and incubated in DMEM medium (PanEco, Russia) with penicillin-streptomycin (50 units/mL) (PanEco, Russia) and 10% fetal bovine serum (PanEco, Russia) at 37 °C in 5% CO2. After 24 h, the medium was changed to a similar one but without serum to avoid interaction of the studied substance with it. […] Cells serving as positive controls were treated with ifosfamide (Baxter Oncology, Germany) at a final concentration of 1 μg/mL. Cell culture with the substances was left for 24 h at 37 °C in 5% CO2. Once this time was reached, the cells were removed from the substrate and washed twice with phosphate-salt buffer (PBS). Direct Comet assay was performed using OxiSelect™ Comet Assay Kit (Cell Biolabs, USA) according to the manufacturer’s protocol. Samples were stained with fluorescent dye Sybr Gold, Invitrogene, USA, and examined with a Zeiss microscope using a filter for FITC-fluorescence. All necessary measurements were performed using the computer program CometScore2.0. Statistics were calculated using Student’s t-test using the Microsoft Excel software package.
During the study, the NKE cells were seeded in 24-well plates. […] After this time, the assay itself was performed using OxiSelect™ Comet Assay Kit (Cell Biolabs, San Diego, CA, USA). […]

[4] = system: Hep2 cell line (human laryngeal cancer); assay: Cell viability study (MTT-test) with and without irradiation; assay type: cell-based
Experimental: (§1) Biological activity. Cell viability study (MTT-test) on Hep2 (human laryngeal cancer) and NKE (normal kidney epithelial) cell lines. For this study, cells were plated into 96-well plates (BD Micro-FinePlus, Franklin Lakes, USA) (6 × 10^3 cells in 180 μL of culture medium) and incubated for 24 h at 37 °C in 5% CO2. The medium was standard DMEM (PanEco, Moscow, Russia) with penicillin-streptomycin (50 units/mL) (PanEco, Moscow, Russia) supplemented with 10% fetal bovine serum (PanEco, Russia). After this time, culture medium was replaced with a similar volume of Hanks’ solution (PanEco, Russia) with glucose added at a final concentration of 4.5 mg/mL. On the day of the experiment, serial dilutions of the compound in deionised water were made and 20 μL was added to the cell culture. The cell culture thus obtained was irradiated for 90 min using a Medical Therapy Philips TL 20W/52 lamp (wavelength 400–500 nm), power 2.3 mW. In parallel, the cell culture was incubated with the compound in the dark. After 90 min, in both cases, Hanks’ solution with the compound was replaced with DMEM medium without serum. The cell culture was then left for 24 h at 37 °C in 5% CO2 in the dark, after which 10 μL of MTT reagent solution (5 mg/mL, PanEco, Russia) was added and incubated for another 3.5 h. The formed formazan in cells was dissolved in 100 μL DMSO. The optical density of the solution was measured on a MultiScan MCC 340 spectrophotometer (Labsystems, Kennett Square, PA, USA) at 540 nm. Each series of experiments was repeated 3 times. […] Statistical processing of the obtained data was performed using Excel program package (Microsoft).
(§2) Cell viability study (MTT-test). The cytotoxicity of compounds 12 and 14 was studied on a Hep2 cell line (human laryngeal cancer) and NKE (human normal kidney epithelial), with and without irradiation. Two approaches were used when treating the cells. In the first case, compounds 12 and 14 were introduced into the cell culture only for the irradiation time (90 min). After that, the cell medium containing one of the compounds was removed. The cells were incubated in a fresh DMEM medium without compounds for a further 24 h, after which time the results were evaluated. The IC50 values were close for both cell lines (Table 4, Figure 5 and Figure S58). […] The results for the NKE cell line are presented in Table 4 and Figure S58 (Supporting Information).
(§3) In the second series of experiments, cell viability was evaluated 24 h after irradiation without removing the compound from the culture medium.

[5] = system: NKE (human normal kidney epithelial) cell line; assay: as above; assay type: cell-based
Experimental: as §1, §2, §3

[6] = Singlet oxygen quantum yield, DPBF oxidation in DMF, ZnTPP as standard; assay type: physicochemical; details: air-saturated, λ ≥ 500 nm
Excerpt: Photochemical experiments for singlet oxygen quantum yield determination. Porphyrin-containing samples were irradiated in quartz cells at room temperature in air-saturated DMF solutions. Light source consisted of halogen lamp (150 W), thermal and UV filters, a three-lens spherical condenser with a reflector, and a cut-off filter (λ ≥ 500 nm). The light flux power was 10 mW/cm^2. The efficiency of photosensitised ^1O2 generation in porphyrin solutions was estimated from the dynamics of the absorbance decrease at 415 nm, corresponding to the absorption maximum of the selective ^1O2 acceptor-1,3-diphenylisobenzofuran (DPBF). DPBF was added to the solution of the tested compound in the dark immediately before the start of the photochemical experiment (CDPBF = 0.1 mM). […] The singlet oxygen quantum yield (ΦΔ) were calculated according to the known procedure with ZnTPP being a standard (ΦΔ = 0.74 in DMF).

[7] = Aggregation behaviour, UV-vis absorption and fluorescence spectra in DMF and aqueous solubiliser solutions; assay type: physicochemical
Experimental: Aggregation behavior, photophysical characterization and solubilisation studies. Photophysical properties of zinc complexes of amphiphilic meso-arylporphyrins and their conjugates with terpyridine were studied in DMF and aqueous solutions of different solubilisers. Stock solutions of 1 mM of the studied compounds in DMF were added upon stirring to a micellar aqueous solution of a solubiliser (3 mL). The final concentration of the porphyrins was 3.5 µM. UV-vis absorption spectra were recorded using HACH DR-4000V spectrophotometer (Hach-Lange, Loveland, CO, USA) within the wavelength range of 320–800 nm with a step of 1 nm in quartz cells (10 mm) at room temperature. Steady-state fluorescence spectra were recorded using Perkin Elmer LS-50 (USA) luminescent spectrometer under similar conditions with the Soret band maximum excitation. Fluorescence quantum yields (ΦF) for Zn(II) complexes in DMF were measured according to the procedure using ZnTPP as a standard (ΦF = 0.033).

[8] = as above; assay type: physicochemical; details: DMSO

SMILES: C1=Cc2nc1c(-c1ccccc1)c1ccc([n-]1)c(-c1ccccc1)c1nc(c(-c3ccccc3)c3ccc([n-]3)c2-c2ccccc2)C=C1.[Zn+2] [ZnTPP]
fluorescence quantum yield ΦF [1]: 0.033
singlet oxygen quantum yield ΦΔ [2]: 0.74

SMILES: O=P1(NCCCl)OCCCN1CCCl (centres unmarked) [ifosfamide]
proportion of 'comet' cells [3]: 36.1 ± 2.14%

IC50 ([4]; dark conditions, 24 h): 2550 ± 280 nM
IC50 ([4]; light irradiation 8.073 J/cm^2, 24 h, compound not removed): 2470 ± 233 nM
IC50 ([4]; light irradiation 90 min, 8.073 J/cm^2, compound present […] then removed, read after 24 h): 1870 ± 333 nM
singlet oxygen quantum yield [6]: about 65%
solubilisation ([7]; 0.5 mM Tween-80, 1% Cremophor EL and 1% Pluronic F-127): partial solubilisation
lgε ([7]; Brij-58 (0.5 mM)): 5.15
ΔλB (half-width of the Soret band) ([7]; Brij-58 (0.5 mM)): 28 nm
λem, second band ([7]; Brij-58 (0.5 mM)): 660 nm
lgε ([7]; Cremophor (1% Cremophor EL)): 5.35
ΔλB (half-width of the Soret band) ([7]; Cremophor (1% Cremophor EL)): 27 nm
λem, second band ([7]; Cremophor (1% Cremophor EL)): 655 nm
λmax ([7]; Cremophor (1% Cremophor EL)): 430
molar absorption coefficient, times lower than for ZnTPP ([7]; DMF): 1.5 times
λQ (first Q band) ([7]; DMF): 560 nm
lgε ([7]; DMSO): 5.70
ΔλB (half-width of the Soret band) ([7]; H2O): 36 nm
λem, second band ([7]; H2O): 660 nm
lgε ([7]; Pluronic (1% Pluronic F-127)): 5.36
ΔλB (half-width of the Soret band) ([7]; Pluronic (1% Pluronic F-127)): 22 nm
λem, second band ([7]; Pluronic (1% Pluronic F-127)): 658 nm
lgε ([7]; TX-100 (1 mM)): 5.34
ΔλB (half-width of the Soret band) ([7]; TX-100 (1 mM)): 25 nm
lgε ([7]; Tween-80 (0.5 mM)): 5.40
ΔλB (half-width of the Soret band) ([7]; Tween-80 (0.5 mM)): 19 nm
ΔλB (half-width of the Soret band) [8]: 10 nm
SMILES: CCCCCCOc1ccc(-c2c3nc(c(-c4ccc(OCCCCCC)cc4)c4ccc([n-]4)c(-c4ccc(OCc5ccc(-c6cc(-c7ccccn7)nc(-c7ccccn7)c6)cc5)cc4)c4nc(c(-c5ccc(OCCCCCC)cc5)c5ccc2[n-]5)C=C4)C=C3)cc1.[Zn+2] [compound 12]
toxic effect without irradiation ([4]; dark, […] incubation, studied concentration range): no toxic effect
IC50 ([5]; dark conditions, 24 h): 2440 ± 281 nM
IC50 ([5]; light irradiation 8.073 J/cm^2, 24 h): 2570 ± 320 nM
IC50 ([5]; light irradiation 8.073 J/cm^2, […]): 1700 ± 297 nM
